4 molecules from patent US6660767B2, “Coumarin compounds as microtubule stabilizing agents and therapeutic uses thereof” (The Regents of the University of California, priority 2001, dated 2003) can be followed below.

One data set relates to S. purpuratus embryos. Put plainly: Inhibition of first cleavage (cell division) of sea urchin embryos. It is filed as cell-based, Strongylocentrotus purpuratus. To be noted: for inhibition of the first cleavage of S. purpuratus embryos: FIGS. 1-4; for IC50: Strongylocentrotus purpuratus, read-out: concentration required for half maximal inhibition of first cleavage. Here is the method:
(§1) Male and female Strongylocentrotus purpuratus or S. franciscanus were injected with 0.5 M KCl through the soft tissue of the oral surface into the coleomic cavity and were then cultured in filtered seawater by conventional methods in the art. See e.g. O'Brien, E. T., et al. (1989) Mol. Pharmacol. 35:635-642; and Jacobs, J. S. and L. Wilson (1986) Drugs Pharm. Sci. 27:481-493, which are herein incorporated by reference. Gametes were released into filtered seawater. The eggs were stirred and passed 3 times through a […] Nitex mesh (Tetko, Inc., Elmsford, N.Y.) to remove the jelly coating and then allowed to settle. The seawater was aspirated off and then the eggs were centrifuged for 4 minutes at 310 rpm. The eggs were resuspended at 1% (v/v) in filtered seawater and set aside. Fresh sperm were collected from the aboral surface of a male urchin. About 1 drop of concentrated sperm was collected into a test tube and 1 ml of seawater was added. A 1 ml aliquot of the sperm solution was added per 100 ml of suspended eggs and immediately mixed.
After 1 minute post-fertilization, about 1 ml of embryos were placed on a microscope slide and checked for percent fertilization under a 10× magnification with a light microscope. A visible fertilization membrane differentiates fertilized egg from the unfertilized. The fertilized embryos were then incubated with a coumarin compound no later than 5 minutes after initial fertilization. The embryos were incubated for about 2 hours at about 15° C. to about 17° C., or until the control embryos completed first division and were in the 2-cell stage. The amount of division was calculated in each test sample by counting the number of divided versus undivided embryos in a small sample of about 40 μL using the light microscope.
(§2) Quantitation of division was performed by counting the number of divided and nondivided embryos after the control embryos had progressed to the end of first cleavage (about 120 minutes after fertilization). […]

Data set [1] concerns Lytechinus pictus embryos. Put plainly: Inhibition of first cleavage of sea urchin embryos (dose-response). It is filed as cell-based.
The next data set deals with S. franciscanus embryos. Described as above. In kind it is cell-based. Here is the method:
as §1, with “Fresh sperm were collected from the aboral surface of a male urchin. About 1 drop of concentrated sperm was collected into a test tube and 1 ml of seawater was added. A 1 ml aliquot of the sperm solution was added per 100 ml of suspended eggs and immediately mixed.” left out
After 1 minute post-fertilization, about 1 ml of embryos were placed on a microscope slide and checked for percent fertilization under a 10× magnification with a light microscope. […] The amount of division was calculated in each test sample by counting the number of divided versus undivided embryos in a small sample of about 40 μL using the light microscope.
as §2

Data set [2] relates to sea urchin embryos. In words: Spindle microtubule and chromosome organization in sea urchin embryos (immunofluorescence, modified Balczon and Schatten). It is filed as cell-based, S. franciscanas. To be noted: 50 μM dicoumarol. As to the method:
Sea urchin embryos prepared according to Example 1 were used to study the effect of coumarin compounds on spindle microtubule organization and chromosome organization using immunofluorescence microscopy with specific antibodies for tubulin and DAPI was used to image the chromatin. Two different sea urchin embryo assay protocols were used.
Fixation and staining of embryos for immunofluorescence microscopy were performed according to a modified method of Balczon and Schatten ((1983) Cell Motility 3:213-226, which is herein incorporated by reference). […]. After extraction for 45 minutes, the embryos were fixed for 6 minutes with −10° C. methanol. After methanol fixation, the cells were rinsed for 5 minutes in PBS and then 25 μl of anti-α-tubulin monoclonal antibody (1:100) in PBS comprising 2% bovine serum albumin was added.
The embryos were incubated at 37° C. for about 60 to about 75 minutes and rinsed for 20 minutes in PBS after which 25 μl of a secondary staining solution comprising fluoroscein isothiocynate (FITC) conjugated to an anti-mouse IgG (1:100 in PBS) and DAPI (10 μg/ml) was added. The embryos were then incubated for 60 minutes at 37° C. and then rinsed for 20 minutes in PBS. Coverslips were mounted onto the slides with a solution of Vectashield® (Vector Laboratories, Inc., Burlingame, Calif.) and sealed with nail polish. […]

Another data set has as its target tubulin (Bos taurus, UniProt P81947+Q6B856). Put plainly: Turbidity (light scattering) polymerization assay with electron microscopy. It is filed as biochemical, bovine. As to the method:
To determine the rate and extent of the ability of a test compound to promote or inhibit microtubule polymerization (change in turbidity) a coumarin compound is added to a cuvet comprising about 1 mg/ml microtubule protein. The cuvet is incubated at 37° C. for 45 minutes in a spectrophotometer equipped with a heating unit and the absorbance is measured at about 340 nm. The change in absorbance is measured at intervals of 45 seconds over the 45-minute period and compared to the absorbance change induced by 1 mM GTP.
Specifically, 1.2 mg/ml of microtubule protein was mixed with different concentrations of dicoumarol in 100 mM PIPES, 1 mM MgCl2, and 1 mM EGTA (100 mM PEM buffer), and 1 mM guanosine 5′-triphosphate. Microtubule polymerization was monitored at 37° C. by light scattering at 350 nm using a Gilford Response Spectrophotometer.
10 μl aliquots were taken from spectrophotometrically followed reaction mixtures obtained during the course of the turbidity/light scattering assays at 10, 20, and 45 minutes and applied to 200-mesh carbon coated, Formavar-treated, copper grids (Ted Pella, Inc., Redding, Calif.). The sample was followed by several drops of 0.5% uranyl acetate and excess was drained off with filter paper. The grids were then examined with a Zeiss model 10CA electron microscope.

Data set [3] deals with sea urchin embryos. In words: Cell cycle analysis: dicoumarol added at 10-minute intervals after fertilization. As to conditions: 50 μM dicoumarol added at 10-minute intervals; FIG. 5.
Method: The ability of dicoumarol to block cells in mitosis, like a mitotic spindle poison, was examined. The first mitosis typically occurs between about 70 to about 90 minutes after fertilization and cytokinesis is usually complete at about 120 minutes, giving rise to two blastomeres.
Specifically, aliquots were designated T-10, T-20, . . . T-120.

Molecules are shown by their SMILES. Entries after “also recorded” stand apart in the source; their conditions may differ. Where two headings read alike, the source gives them in different places.

Sequence of tubulin (Q6B856 whole entry): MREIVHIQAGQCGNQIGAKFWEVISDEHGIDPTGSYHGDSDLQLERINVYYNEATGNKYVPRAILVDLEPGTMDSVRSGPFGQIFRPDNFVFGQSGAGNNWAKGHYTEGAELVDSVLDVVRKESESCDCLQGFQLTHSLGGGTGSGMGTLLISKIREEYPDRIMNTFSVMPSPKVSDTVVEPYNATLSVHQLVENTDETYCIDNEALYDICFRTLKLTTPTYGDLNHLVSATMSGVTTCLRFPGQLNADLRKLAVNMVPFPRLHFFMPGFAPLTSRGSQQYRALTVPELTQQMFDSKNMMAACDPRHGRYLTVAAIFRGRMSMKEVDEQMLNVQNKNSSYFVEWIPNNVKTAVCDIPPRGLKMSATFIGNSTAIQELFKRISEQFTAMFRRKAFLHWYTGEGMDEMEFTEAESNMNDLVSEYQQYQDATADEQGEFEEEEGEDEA
Sequence of tubulin (P81947 whole entry): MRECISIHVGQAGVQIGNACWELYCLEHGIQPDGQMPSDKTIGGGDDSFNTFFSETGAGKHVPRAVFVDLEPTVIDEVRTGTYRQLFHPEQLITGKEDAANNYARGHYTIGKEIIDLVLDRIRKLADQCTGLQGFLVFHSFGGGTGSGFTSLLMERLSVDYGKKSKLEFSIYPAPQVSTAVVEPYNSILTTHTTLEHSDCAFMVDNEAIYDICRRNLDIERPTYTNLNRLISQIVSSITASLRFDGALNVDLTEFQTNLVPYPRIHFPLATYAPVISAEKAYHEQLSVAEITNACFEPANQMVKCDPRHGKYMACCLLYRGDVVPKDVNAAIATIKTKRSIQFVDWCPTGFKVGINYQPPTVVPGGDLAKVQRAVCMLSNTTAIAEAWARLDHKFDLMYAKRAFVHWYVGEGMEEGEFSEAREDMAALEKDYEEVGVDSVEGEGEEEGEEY

For `O=c1oc2ccccc2c(O)c1Cc1c(O)c2ccccc2oc1=O` [dicoumarol], the “inhibition of the first cleavage of S. purpuratus embryos” value (“inhibition … of S. purpuratus embryos” for short) in the data set with S. purpuratus embryos is “inhibited the first cleavage”. In the data set with S. purpuratus embryos (S. purpuratus embryos), the “concentration at which cell division was completely blocked” value was at least 20 µM. Besides, in the data set on S. purpuratus embryos, the IC50 was about 4 µM. Moreover, in the data set with S. purpuratus embryos (dicoumarol treated embryos), the “lysis or morphological changes of treated embryos” value was “no lysis or morphological changes”. Moreover, the “dose-response curve of cleavage inhibition” value (in data set [1]; in the data set with S. franciscanus embryos) was “identical to those obtained using S. purpuratus” in each case. Further, the chromosome organization result in the data set with sea urchin embryos [2] is “disorganized chromosomes that had not congressed to the metaphase plate”. Also, in the data set with sea urchin embryos [2], the “microtubules of mitotic spindles” value was “bipolar, but appeared to be longer and located outside an intact nuclear envelope”. Besides, the “microtubule formation by electron microscopy” value was “microtubules were produced” on tubulin (100 μM dicoumarol, polymerization prolonged to 45 minutes); “revealed actual microtubule structures” at tubulin (axonemal seeded microtubules, 20 μM dicoumarol); “No microtubules were formed” at tubulin (polymerization for 10 and 20 minutes, no axonemes). For the same molecule, the “rate and extent of polymerization of tubulin (turbidity)” value on tubulin (tubulin 12 μM, dicoumarol 0 μM-80 μM, FIG. 9) was “increased the rate and extent of tubulin polymerization; also recorded: concentration-dependent increase”. Further, the “inhibition of first cleavage versus time of addition after fertilization” value with sea urchin embryos [3] was “rapidly declined when dicoumarol was added 90 minutes after fertilization; also recorded: blocked if added after metaphase (90 minutes)”.
`O=c1ccc2ccccc2o1` [coumarin]: the “inhibition … of S. purpuratus embryos” value in the data set with S. purpuratus embryos is listed as “inhibited the first cleavage”.
With `CC(=O)CC(c1ccccc1)c1c(O)c2ccccc2oc1=O` (centres unmarked) [warfarin], in the data set with S. purpuratus embryos, the “inhibition … of S. purpuratus embryos” value was “inhibited the first cleavage”.
As for `O=c1ccc2ccc(O)cc2o1` [7-hydroxycoumarin], in the data set on S. purpuratus embryos, the “inhibition … of S. purpuratus embryos” value was “inhibited the first cleavage”. The IC50 in the data set on S. purpuratus embryos (S. purpuratus embryos, first cleavage) was about 40 µM.
